Data from patent US12410171B2, “Tropomyosin receptor kinase (TRK) degradation compounds and methods of use” (Cullgen (Shanghai), Inc., priority 2020, dated 2025).
Read-outs that look alike come from different tables or passages of the source.

How the values were obtained:
KM12 cells = experiment: KM12 cell viability (CellTiter-Glo); type: cell-based; conditions: Homo sapiens
Summary of the method: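 KM12 cells seeded at 5000 per well in RPMI 1640 + 10% FBS and exposed 3 days to serial dilutions (11-point 3-fold, 8-point 3-fold from 1000 nM, or 12-point 2-fold). Viability by CellTiter-Glo; IC50 from least-squares nonlinear regression.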

TPM3-TRKA fusion protein = molecular target: T1, TPM3-TRKA fusion protein (Homo sapiens, UniProt P04629); experiment: TPM3-TRKA fusion protein levels in KM12 cells (Western blot); type: cell-based; conditions: read-out: Degradation (at 10 nM)
T1 construct: The resulted chimeric proteins always retain the kinase domain of TRK proteins; TPM3 (fusion partner, N-terminal part of tropomyosin alpha-3, P06753); endogenous in cells; host or cells: KM12 colon cancer cells; the other entry of the earlier key: TPM3 (P06753, Tropomyosin alpha-3 chain)
Summary of the method: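 KM12 colon cancer cells were treated with DMSO or compounds at 0.1–100 nM, 0.4–30 nM or other stated concentrations for 4, 8–16 or 16 h. RIPA lysates were BCA-normalized and resolved by SDS-PAGE. TPM3-TRKA was detected by chemiluminescent Western blot, with bands quantified by densitometry.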

[1] = 72 h, KM12 cell viability, CellTiter-Glo, three days treatment, read-out: IC50
[2] = 16 h, TPM3-TRKA degradation in KM12 cells at 10 nM compound, category of percentage degradation

T1 sequence (P04629 with tags, fused parts or gaps): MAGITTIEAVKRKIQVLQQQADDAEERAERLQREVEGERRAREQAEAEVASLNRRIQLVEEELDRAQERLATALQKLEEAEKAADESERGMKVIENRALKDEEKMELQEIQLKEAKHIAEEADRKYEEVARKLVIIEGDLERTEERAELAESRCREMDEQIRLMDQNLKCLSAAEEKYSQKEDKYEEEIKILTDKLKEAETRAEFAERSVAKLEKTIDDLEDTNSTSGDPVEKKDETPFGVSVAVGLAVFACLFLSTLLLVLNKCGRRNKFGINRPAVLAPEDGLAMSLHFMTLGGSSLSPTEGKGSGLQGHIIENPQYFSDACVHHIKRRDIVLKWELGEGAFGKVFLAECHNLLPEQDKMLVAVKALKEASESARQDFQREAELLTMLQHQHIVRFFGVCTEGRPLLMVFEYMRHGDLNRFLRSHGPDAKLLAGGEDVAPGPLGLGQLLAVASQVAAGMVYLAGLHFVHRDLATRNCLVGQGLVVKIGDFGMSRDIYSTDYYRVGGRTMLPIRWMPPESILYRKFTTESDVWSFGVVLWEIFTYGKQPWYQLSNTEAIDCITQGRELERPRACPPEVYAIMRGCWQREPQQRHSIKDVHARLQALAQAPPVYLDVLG

Row | SMILES | IC50 (KM12 cells; KM12, 72 h) | percent degradation of TPM3-TRKA protein at 0.01 µM (TPM3-TRKA fusion protein; KM12, 16 h) | IC50 (KM12 cells; [1]) | percent degradation of TPM3-TRKA protein at 0.01 µM (TPM3-TRKA fusion protein; [2])
1 | Cn1c(=O)n(C2CCC(=O)NC2=O)c2ccc(NCCN3CCN(c4ccc(C(=O)Nc5n[nH]c6ccc(Cc7cc(F)cc(F)c7)cc56)c(NC5CCOCC5)c4)CC3)cc21 (centres unmarked) [TR-324, N-(5-(3,5-difluorobenzyl)-1H-indazol-3-yl)-4-(4-(2-((1-(2,6-dioxopiperidin-3-yl)-3-methyl-2-oxo-2,3-dihydro-1H-benzo[d]imidazol-5-yl)amino)ethyl)piperazin-1-yl)-2-((tetrahydro-2H-pyran-4-yl)amino)benzamide] | 0.0013 µM | > 80% |  | 
2 | Cn1c(=O)n(C2CCC(=O)NC2=O)c2cccc(NCCN3CCN(c4ccc(C(=O)Nc5n[nH]c6ccc(Cc7cc(F)cc(F)c7)cc56)c(NC5CCOCC5)c4)CC3)c21 (centres unmarked) [TR-325, N-(5-(3,5-difluorobenzyl)-1H-indazol-3-yl)-4˜ (4-(2-((1-(2,6-dioxopiperidin-3-yl)-3-methyl-2-oxo-2,3-dihydro-1H-benzo[d]imidazol-4-yl)amino)ethyl)piperazin-1-yl)-2-((tetrahydro-2H-pyran-4-yl)amino)benzamide] | 0.013 µM | > 80% |  | 
3 | O=C1CCC(n2nnc3cccc(N4CC(CN5CCN(c6ccc(C(=O)Nc7n[nH]c8ccc(Cc9cc(F)cc(F)c9)cc78)c(NC7CCOCC7)c6)CC5)C4)c3c2=O)C(=O)N1 (centres unmarked) [TR-326, N-(5-(3,5-Difluorobenzyl)-1H-indazol-3-yl)-4-(4-((1˜ (3-(2,6-dioxopiperidin-3-yl)-4-oxo-3,4-dihydrobenzo[d][1,2,3]triazin-5-yl)azetidin-3-yl)methyl)piperazin-1-yl)-2-((tetrahydro-2H-pyran-4-yl)amino)benzamide] |  |  | 0.014 µM | 50 to 80%
4 | O=C1CCC(n2nnc3cccc(N4CC(CCN5CCN(c6ccc(C(=O)Nc7n[nH]c8ccc(Cc9cc(F)cc(F)c9)cc78)c(NC7CCOCC7)c6)CC5)C4)c3c2=O)C(=O)N1 (centres unmarked) [TR-327, N-(5-(3,5-Difluorobenzyl)-1H-indazol-3-yl)-4-(4-(2-(1-(3-(2,6-dioxopiperidin-3-yl)-4-oxo-3,4-dihydrobenzo[d][1,2,3]triazin-5-yl)azetidin-3-yl)ethyl)piperazin-1-yl)-2-((tetrahydro-2/-pyran-4-yl)amino)benzamide] |  |  | 0.0133 µM | 50 to 80%
5 | O=C1CCC(N2C(=O)c3ccc(C4CN(CC5CCN(c6ccc(C(=O)Nc7n[nH]c8ccc(Cc9cc(F)cc(F)c9)cc78)c(NC7CCOCC7)c6)CC5)C4)cc3C2=O)C(=O)N1 (centres unmarked) [TR-328, N-(5-(3,5-Difluorobenzyl)-1H-indazol-3-yl)-4-(4-((3˜ (2-(2,6-dioxopiperidin-3-yl)-1,3-dioxoisoindolin-5-yl)azetidin-1-yl)methyl)piperidin-1-yl)-2-((tetrahydro-2/7-pyran-4-yl)amino)benzamide] |  |  | 0.0359 µM | > 80%
6 | O=C1CCC(N2Cc3cc(C4CN(CC5CCN(c6ccc(C(=O)Nc7n[nH]c8ccc(Cc9cc(F)cc(F)c9)cc78)c(NC7CCOCC7)c6)CC5)C4)ccc3C2=O)C(=O)N1 (centres unmarked) [TR-330, N-(5-(3,5-Difluorobenzyl)-1H-indazol-3-yl)-4-(4-((3-(2-(2,6-dioxopiperidin-3-yl)-1-oxoisoindolin-5-yl)azetidin-1-yl)methyl)piperidin-1-yl)-2-((tetrahydro-2H-pyran-4-yl)amino)benzamide] |  |  | 0.0285 µM | > 80%
7 | O=C1CCC(N2Cc3cc(N4CC(N5CCN(c6cccc(-c7cnc8ccc(N9CCC[C@@H]9c9cccc(F)c9)nn78)n6)CC5)C4)ccc3C2=O)C(=O)N1 (stereo partly drawn) [TR-331, 3-(5-(3-(4-(6-(6-((R)-2-(3-fluorophenyl)pyrrolidin-1-yl)imidazo[1,2-b]pyridazin-3-yl)pyridin-2-yl)piperazin-1-yl)azetidin-1-yl)-1-oxoisoindolin-2-yl)piperidine-2,6-dione] |  |  | 0.0016 µM | > 80%
8 | O=C1CCC(N2Cc3cc(N4CC(N5CCN(c6ccc(C(=O)Nc7n[nH]c8ccc(Cc9cc(F)cc(F)c9)cc78)c(NC7CCOCC7)c6)CC5)C4)ccc3C2=O)C(=O)N1 (centres unmarked) [TR-332, N-(5-(3,5-difluorobenzyl)-1H-indazol-3-yl)-4-(4-(1-(2-(2,6-dioxopiperidin-3-yl)-1-oxoisoindolin-5-yl)azetidin-3-yl)piperazin-1-yl)-2-((tetrahydro-2H-pyran-4-yl)amino)benzamide] |  |  | 0.0017 µM | > 80%
9 | Cc1nc2cccc(N3CC(CN4CCN(c5ccc(C(=O)Nc6n[nH]c7ccc(Cc8cc(F)cc(F)c8)cc67)c(NC6CCOCC6)c5)CC4)C3)c2c(=O)n1C1CCC(=O)NC1=O (centres unmarked) [TR-333, N-(5-(3,5˜Difluorobenzyl)-1H-indazol-3-yl)-4-(4-((1-(3-(2,6-dioxopiperidin-3-yl)-2-methyl-4-oxo-3,4-dihydroquinazolin-5-yl)azetidin-3-yl)methyl)piperazin-1-yl)-2-((tetrahydro-2H-pyran-4-yl)amino)benzamide] |  |  | 0.0105 µM | 50 to 80%
10 | Cc1nc2cccc(N3CC(CCN4CCN(c5ccc(C(=O)Nc6n[nH]c7ccc(Cc8cc(F)cc(F)c8)cc67)c(NC6CCOCC6)c5)CC4)C3)c2c(=O)n1C1CCC(=O)NC1=O (centres unmarked) [TR-334, N-(5-(3,5-Difluorobenzyl)-1H-indazol-3-yl)-4-(4-(2-(1-(3-(2,6-dioxopiperidin-3-yl)-2-methyl-4-oxo-3,4-dihydroquinazolin-5-yl)azetidin-3-yl)ethyl)piperazin-1-yl)-2-((tetrahydro-2/-pyran-4-yl)amino)benzamide] |  |  | 0.0246 µM | 50 to 80%
11 | O=C1CCC(N2Cc3ccc(N4CC(N5CCN(c6cccc(-c7cnc8ccc(N9CCC[C@@H]9c9cccc(F)c9)nn78)n6)CC5)C4)cc3C2=O)C(=O)N1 (stereo partly drawn) [TR-335, 3-(6-(3-(4-(6-(6-((R)-2-(3-fluorophenyl)pyrrolidin-1-yl)imidazo[1,2-b]pyridazin-3-yl)pyridin-2-yl)piperazin-1-yl)azetidin-1-yl)-1-oxoisoindolin-2-yl)piperidine-2,6-dione] |  |  | 0.0083 µM | 50 to 80%
12 | O=C1CCC(N2Cc3ccc(N4CC(N5CCN(c6ccc(C(=O)Nc7n[nH]c8ccc(Cc9cc(F)cc(F)c9)cc78)c(NC7CCOCC7)c6)CC5)C4)cc3C2=O)C(=O)N1 (stereo not drawn) [TR-336, N—(S-(3,5-difluorobenzyl)-1H-indazol-3-yl)-4-(4-(1-(2-(2,6-dioxopiperidin-3-yl)-3-oxoisoindolin-5-yl)azetidin-3-yl)piperazin-1-yl)-2-((tetrahydro-2H-pyran-4-yl)amino)benzamide] |  |  | 0.0032 µM | > 80%
13 | O=C1CCC(N2C(=O)c3ccc(N4CC(NC5CCN(c6ccc(C(=O)Nc7n[nH]c8ccc(Cc9cc(F)cc(F)c9)cc78)c(NC7CCOCC7)c6)CC5)C4)cc3C2=O)C(=O)N1 (centres unmarked) [TR-337, N-(5-(3,5-difluorobenzyl)-1H-indazol-3-yl)-4-(4-((1-(2-(2,6-dioxopiperidin-3-yl)-1,3-dioxoisoindolin-5-yl)azetidin-3-yl)amino)piperidin-1-yl)-2-((tetrahydro-2H-pyran-4-yl)amino)benzamide] |  |  | 0.0055 µM | > 80%
